The text below walks through data of article PMC11156899, “High-throughput screening unveils nitazoxanide as a potent PRRSV inhibitor by targeting NMRAL1” (Nature Communications, 2024).

For this experiment, the system named is PRRSV GSWW-18 strain. As to the kind of experiment: PRRSV transmission to co-housed pigs. It counts as in vivo, pig. As to conditions: 25 mg/kg, from 0 dpi; two co-house animals uninfected. On the procedure: Although the replication mechanism of PRRSV in blood is not fully understood, viremia is an undoubted marker of disease severity[22],[23]. […] On the second day post-infection, we administered NTZ at dosages of 10 mg/kg or 5 mg/kg and monitored the dynamics of PRRSV in the blood within 24 h (Fig. 4b). We observed that NTZ acted swiftly. […] Further experiments explored NTZ’s role in viral transmission (Fig. 4c).
Fig. 4 NTZ inhibition of PRRSV shedding and transmission. a Viral load in blood, and shedding in oronasal and anal swabs. Viral load or shedding in blood and oronasal swabs were quantified from 2 to 4 dpi, and in anal swabs from 2 to 5 dpi. Viral copy numbers for each pig during this period are presented. b NTZ suppression of PRRSV proliferation in blood. […] Parameters were calculated using a non-compartmental analysis (NCA). Eighteen pigs were evenly divided into three dosage groups (n = 6), each housed separately, fasted for 12 h before the experiment, and monitored by professional veterinarians for welfare and enclosure cleaning to prevent coprophagia. g Tissue distribution of NTZ’s main metabolite TIZ. Tissues were collected as per Method Pharmacokinetics and Tissue Distribution of NTZ, quantifying TIZ content at various times (n = 2). […]

Consider `CC(=O)Oc1ccccc1C(=O)Nc1ncc([N+](=O)[O-])s1` [Nitazoxanide], for which the “PRRSV transmission to co-housed animals” value is on record as “can help limit PRRSV transmission”.
